Reference: ChEMBL document CHEMBL6121069, “A Medicinal Chemistry Perspective on Protein Tyrosine Phosphatase Nonreceptor Type 2 in Tumor Immunology” (J Med Chem, 2025)
Blank lines part the entries; values can stand above or below the molecule they belong to.

How the values were obtained:
[1] = molecular target: T1, Tyrosine-protein phosphatase non-receptor type 1 (Homo sapiens, UniProt P18031)
T1 sequence (P18031 whole entry): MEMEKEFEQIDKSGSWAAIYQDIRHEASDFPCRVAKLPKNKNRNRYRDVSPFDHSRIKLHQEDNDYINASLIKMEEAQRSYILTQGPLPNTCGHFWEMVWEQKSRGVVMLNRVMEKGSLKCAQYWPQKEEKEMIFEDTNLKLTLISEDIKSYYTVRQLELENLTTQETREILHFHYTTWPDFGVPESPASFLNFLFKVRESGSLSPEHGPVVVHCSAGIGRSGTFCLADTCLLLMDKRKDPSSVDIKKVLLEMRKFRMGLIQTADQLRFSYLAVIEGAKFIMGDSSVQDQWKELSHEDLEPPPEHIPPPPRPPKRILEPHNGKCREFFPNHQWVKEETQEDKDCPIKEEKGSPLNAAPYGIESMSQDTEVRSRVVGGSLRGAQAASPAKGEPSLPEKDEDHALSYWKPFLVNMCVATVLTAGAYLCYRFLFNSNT
Description: Inhibition of PTP1B (unknown origin)

[2] = molecular target: T2, Tyrosine-protein phosphatase non-receptor type 2 (Homo sapiens, UniProt P17706)
T2 sequence (P17706 whole entry): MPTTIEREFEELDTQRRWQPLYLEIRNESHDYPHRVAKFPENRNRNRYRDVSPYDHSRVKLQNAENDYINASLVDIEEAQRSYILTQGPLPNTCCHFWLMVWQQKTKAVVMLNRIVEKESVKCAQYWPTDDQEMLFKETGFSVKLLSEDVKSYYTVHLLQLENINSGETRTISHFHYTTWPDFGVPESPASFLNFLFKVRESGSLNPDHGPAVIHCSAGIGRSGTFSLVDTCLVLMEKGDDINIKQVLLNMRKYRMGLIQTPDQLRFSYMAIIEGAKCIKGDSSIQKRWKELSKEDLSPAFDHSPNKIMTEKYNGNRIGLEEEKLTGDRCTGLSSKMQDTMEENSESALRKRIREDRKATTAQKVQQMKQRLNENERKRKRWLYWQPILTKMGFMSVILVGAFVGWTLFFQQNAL
Description: (§1) Inhibition of wild type FLAG-tagged PTPN2 (unknown origin) extracted from Escherichia coli BL21 (DE3) by micro-plate reader assay

[3] = tested on: B16-F10; experiment: cells; conditions: Mus musculus
Description: Antiproliferative activity against mouse B16-F10 cells assessed as inhibition of cell growth

[4] = molecular target: T2, Tyrosine-protein phosphatase non-receptor type 2; remark: listed apart in the source
Description: Inhibition of full length human recombinant PTPN2 (1 to 387 residues)

[5] = molecular target: T2, Tyrosine-protein phosphatase non-receptor type 2; remark: listed apart in the source
Description: Inhibition of PTPN2 (unknown origin) using DiFMUP as substrate incubated for 30 mins by fluorescence based analysis

[6] = tested on: B16-F10; experiment: cells; conditions: Mus musculus; remark: listed apart in the source
Description: Antiproliferative activity against mouse B16-F10 cells

[7] = cells; conditions: Homo sapiens, B16
Description: Inhibition of PTPN2/PTPN1 (unknown origin) in mouse B16 cells assessed as inhibition of IFNgamma-mediated STAT1 phosphorylation

[8] = molecular target: T2, Tyrosine-protein phosphatase non-receptor type 2; remark: listed apart in the source
Description: Inhibition of PTPN2 (unknown origin) by mobility shift assay

[9] = molecular target: T2, Tyrosine-protein phosphatase non-receptor type 2; remark: listed apart in the source
Description: Inhibition of human PTPN2 using DiFMUP as substrate by fluorescence based analysis

[10] = molecular target: T1, Tyrosine-protein phosphatase non-receptor type 1; remark: listed apart in the source
Description: Inhibition of PTP1B (unknown origin) using para-nitrophenol phosphate substrate incubated for 30 mins by fluorescence based analysis

[11] = molecular target: T1, Tyrosine-protein phosphatase non-receptor type 1; remark: listed apart in the source
Description: Inhibition of C-terminal recombinant PTP1B (1 to 405 residues) (unknown origin) using pNPP as substrate incubated for 30 mins by fluorescence based analysis

[12] = molecular target: T3, Protein cereblon/Tyrosine-protein phosphatase non-receptor type 2 (Homo sapiens, UniProt P17706+Q96SW2); conditions: hek293t
T3 sequence (Q96SW2 whole entry, one chain of several): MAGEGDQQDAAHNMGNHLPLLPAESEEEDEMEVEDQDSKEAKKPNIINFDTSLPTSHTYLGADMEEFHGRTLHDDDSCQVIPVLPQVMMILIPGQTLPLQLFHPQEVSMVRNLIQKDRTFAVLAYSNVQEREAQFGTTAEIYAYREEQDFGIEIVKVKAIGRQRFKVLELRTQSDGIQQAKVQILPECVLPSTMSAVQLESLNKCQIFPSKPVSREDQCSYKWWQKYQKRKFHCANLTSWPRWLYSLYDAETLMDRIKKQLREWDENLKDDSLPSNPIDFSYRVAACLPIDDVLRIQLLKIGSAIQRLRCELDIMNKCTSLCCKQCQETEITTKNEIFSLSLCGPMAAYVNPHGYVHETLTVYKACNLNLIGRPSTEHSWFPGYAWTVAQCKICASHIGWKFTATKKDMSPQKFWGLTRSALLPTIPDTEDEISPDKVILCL
Description: PROTAC activity at PTPN2/CRBN in HEK293T cells assessed as protein degradation measured for 48 hrs by Western blot analysis

[13] = molecular target: Protein cereblon/Tyrosine-protein phosphatase non-receptor type 1 (Homo sapiens, UniProt P18031+Q96SW2); conditions: hek293t
Protein cereblon/Tyrosine-protein phosphatase non-receptor type 1, sequence (Q96SW2 whole entry, one chain of several): as above
Description: PROTAC activity at PTP1B/CRBN in HEK293T cells assessed as maximal protein degradation at 10 uM measured for 48 hrs by Western blot analysis relative to control

[14] = molecular target: T2, Tyrosine-protein phosphatase non-receptor type 2; remark: listed apart in the source
Description: Inhibition of full length human recombinant PTPN2 using DiFMUP as substrate

[15] = molecular target: T2, Tyrosine-protein phosphatase non-receptor type 2; remark: listed apart in the source
Description: Binding affinity to PTPN2 (unknown origin) assessed as dissociation constant by SPR assay

[16] = molecular target: T3, Protein cereblon/Tyrosine-protein phosphatase non-receptor type 2; conditions: hek293t; remark: listed apart in the source
Description: PROTAC activity at PTPN2/CRBN in HEK293T cells assessed as induction of PTPN2 degradation incubated for 24 hrs by Nan-glo HiBiT lytic assay

[17] = tested on: B16-F10; experiment: animal or person; conditions: Mus musculus, B16-F10, 360 h, read-out: TGI
[18] = molecular target: T2, Tyrosine-protein phosphatase non-receptor type 2; remark: listed apart in the source
Description: Inhibition of His-tagged PTPN2 (unknown origin) by mobility shift assay

[19] = molecular target: T1, Tyrosine-protein phosphatase non-receptor type 1; remark: listed apart in the source
Description: Inhibition of full length His-tagged PTP1B (unknown origin) by mobility shift assay

[20] = tested on: B16-F10; experiment: cells; conditions: Mus musculus; remark: listed apart in the source
Description: Antiproliferative activity against mouse B16-F10 cells assessed as reduction in cell growth

[21] = molecular target: T1, Tyrosine-protein phosphatase non-receptor type 1; remark: listed apart in the source
Description: Binding affinity to PTP1B (unknown origin) assessed as inhibition constant

[22] = molecular target: T2, Tyrosine-protein phosphatase non-receptor type 2; remark: listed apart in the source
Description: as §1

[23] = molecular target: T1, Tyrosine-protein phosphatase non-receptor type 1; remark: listed apart in the source
Description: Inhibition of PTP1B (unknown origin) by mobility shift assay

[24] = molecular target: T2, Tyrosine-protein phosphatase non-receptor type 2; remark: listed apart in the source
Description: Binding affinity to PTPN2 (unknown origin) assessed as inhibition constant

[25] = molecular target: T2, Tyrosine-protein phosphatase non-receptor type 2; remark: listed apart in the source
Description: Inhibition of PTPN2 (unknown origin) using DiFMUP as substrate pre-incubated for 15 mins and measured for 30 mins by fluorescence based analysis

[26] = molecular target: T1, Tyrosine-protein phosphatase non-receptor type 1; remark: listed apart in the source
Description: Binding affinity to PTP1B (unknown origin) using pNPP as substrate incubated for 60 mins by fluorescence based analysis

[27] = molecular target: T2, Tyrosine-protein phosphatase non-receptor type 2; remark: listed apart in the source
Description: Inhibition of PTPN2 (unknown origin) using pNPP as substrate measured for 60 mins by fluorescence based analysis

IC50 [1]: 472000 nM
IC50 [2]: 369000 nM
Compound: O=c1c2ccccc2nnn1O

Compound: CCCC1CCN(C2CCN(Cc3cc(O)c(N4CC(=O)NS4(=O)=O)c(F)c3)C2)C1 (centres undefined)
IC50 [3]: 19300 nM
IC50 [4]: 65 nM

IC50 [5]: 280 nM
Compound: NC(=O)c1cc2cc(Br)c(C(F)(F)P(=O)(O)O)cc2s1

IC50 [2]: 3790 nM
Compound: O=C1/C(=N\Nc2ccc(S(=O)(=O)O)cc2)C(c2ccc([N+](=O)[O-])cc2)=NN1c1ccccc1

Compound: CC(C)CCN[C@@H]1CCc2cc(O)c(N3CC(=O)NS3(=O)=O)c(F)c2C1 [OSUNPROTAFIB]
IC50 [6]: 64 nM
EC50 [7]: 180 nM
IC50 [8]: 2.8 nM

IC50 [9]: 13.7 nM
IC50 [10]: 132 nM
Compound: C=C(C)C#COc1cc(C(N)=O)cc2c(Br)c(C(F)(F)P(=O)(O)O)sc12

IC50 [1]: 27000 nM
IC50 [11]: 7700 nM
Compound: C=C(C)[C@@H]1CC[C@@H](C)[C@@H]2CCC(C)=C[C@@H]21

DC50 [12]: 77 nM
DC50 [13]: 758 nM
Compound: Cc1ncsc1-c1ccc([C@H](C)NC(=O)[C@@H]2C[C@@H](O)CN2C(=O)[C@@H](NC(=O)CCCCCCCNC(=O)Cn2cc(-c3ccc4cc(O)c(N5CC(=O)NS5(=O)=O)c(F)c4c3)cn2)C(C)(C)C)cc1

Compound: Cc1cccc(NCc2cc(F)c(N3CC(=O)NS3(=O)=O)c3[nH]ncc23)n1
IC50 [6]: > 15000 nM
IC50 [14]: 199 nM

Kd [15]: 52 nM
DC50 [16]: 44 nM
Compound: Cn1c(=O)n(C2CCC(=O)NC2=O)c2ccc(C3CCN(C(=O)Nc4cccc(CS(=O)(=O)N5CC[C@H](Nc6cccc(-c7sc(C(=O)O)c(OCC(=O)O)c7Cl)c6)CC5(C)C)c4)CC3)cc21 (some centres undefined)

Compound: CC1(C)C[C@@H](Nc2cccc(-c3sc(C(=O)O)c(OCC(=O)O)c3Cl)c2)CCN1S(=O)(=O)Cc1cccc(NC(=O)N2CCC(c3ccc4c5c(cccc35)C(=O)N4[C@H]3CCC(=O)NC3=O)CC2)c1
DC50 [16]: 44 nM
inhibition in vivo at 10 mg/kg [17]: 98%

IC50 [18]: 1 nM
IC50 [19]: 1 nM
Compound: COc1ccc2cc(O)c(N3CC(=O)NS3(=O)=O)c(F)c2c1 [TEGEPROTAFIB]

DC50 [12]: 571 nM
DC50 [13]: 2000 nM
Compound: Cc1ncsc1-c1ccc([C@H](C)NC(=O)[C@@H]2C[C@@H](O)CN2C(=O)[C@@H](NC(=O)CCCCCCCCCCNC(=O)Cn2cc(-c3ccc4cc(O)c(N5CC(=O)NS5(=O)=O)c(F)c4c3)cn2)C(C)(C)C)cc1

IC50 [1]: 113000 nM
IC50 [2]: 198000 nM
Compound: [2H]ON1C(=O)c2cccc3c([N+](=O)[O-])ccc(c23)C1=O

Compound: CC(C)CC1CCN(C2CCN(Cc3cc(O)c(N4CC(=O)NS4(=O)=O)c(F)c3)C2)C1 (centres undefined)
IC50 [3]: 8440 nM
IC50 [4]: 66 nM

IC50 [18]: 1 nM
IC50 [19]: < 1 nM
Compound: CC(C)CCNc1ccc2cc(O)c(N3CC(=O)NS3(=O)=O)c(F)c2c1

Compound: CC(C)(O)CCOc1ccc2cc(O)c(N3CC(=O)NS3(=O)=O)c(F)c2c1
IC50 [20]: 5800 nM
IC50 [18]: 0.6 nM

DC50 [12]: 94 nM
DC50 [13]: 142 nM
Compound: Cc1ncsc1-c1ccc([C@H](C)NC(=O)[C@@H]2C[C@@H](O)CN2C(=O)[C@@H](NC(=O)CCCCCCNC(=O)Cn2cc(-c3ccc4cc(O)c(N5CC(=O)NS5(=O)=O)c(F)c4c3)cn2)C(C)(C)C)cc1

Compound: Cc1cnnc(NCc2cc(O)c(N3CC(=O)NS3(=O)=O)c(F)c2)c1
IC50 [6]: 410 nM
IC50 [14]: 4 nM

DC50 [12]: 217 nM
DC50 [13]: 13100 nM
Compound: Cc1ncsc1-c1ccc([C@H](C)NC(=O)[C@@H]2C[C@@H](O)CN2C(=O)[C@@H](NC(=O)CCCCCNC(=O)Cn2cc(-c3ccc4cc(O)c(N5CC(=O)NS5(=O)=O)c(F)c4c3)cn2)C(C)(C)C)cc1

IC50 [2]: 6500 nM
Compound: CCN(CN=O)c1ccc(O)c(O)c1

Compound: Cn1ccnc1NCc1cc(O)c(N2CC(=O)NS2(=O)=O)c(F)c1
IC50 [6]: 180 nM
IC50 [14]: 6 nM

IC50 [18]: 0.58 nM
IC50 [19]: 0.63 nM
Compound: CC(C)CCOc1ccc2cc(O)c(N3CC(=O)NS3(=O)=O)c(F)c2c1

Compound: O=C1CN(c2c(O)cc(CNc3ncc[nH]3)cc2F)S(=O)(=O)N1
IC50 [6]: 160 nM
IC50 [14]: 10 nM

Ki [21]: 170 nM
Compound: CC(C)C[C@@H]1NC(=O)[C@H](Cc2ccc(OC(F)(C(=O)O)C(=O)O)cc2)NC(=O)[C@H](CCC(=O)O)NC(=O)[C@H](CC(=O)O)NC(=O)[C@H](C)NC(=O)[C@H](CC(=O)O)NC(=O)SC[C@H](C(N)=O)NC1=O

IC50 [22]: 950 nM
Compound: CC(C)(C)C(=O)Nc1ccc2c(c1)C(=O)C(=O)c1ccccc1-2

Compound: CC(C)CCN[C@H]1CCc2cc(O)c(N3CC(=O)NS3(=O)=O)c(F)c2C1
IC50 [6]: 1000 nM
IC50 [23]: 10 nM
IC50 [8]: 10 nM

Ki [24]: 32 nM
Ki [21]: 16 nM
Compound: O=C(O)COc1c(C(=O)O)sc(-c2cccc(N(C(=O)c3ccccc3)C3CCCCC3)c2)c1Br

Compound: CCc1ccc(C(=O)NCCCC[C@H](NC(=O)[C@H](Cc2ccc(C(F)(F)P(=O)(O)O)cc2)NC(=O)[C@@H](CC(=O)COC2CC(C)CCC2C(C)C)Cc2ccccc2)C(N)=O)cc1 (some centres undefined)
Ki [24]: 4.3 nM
Ki [21]: 34 nM
IC50 [25]: 9.2 nM
Ki [26]: 34 nM
IC50 [27]: 9.2 nM

IC50 [5]: 1500 nM
Compound: O=P(O)(O)C(F)(F)c1cc2sc(CO)cc2cc1Br
